SMILES strings stand for the structures. A value given as a limit tells only on which side of the number the result lay.

In the test the target is T1, BRD9 (Homo sapiens, UniProt Q9H8M2).
T1 sequence (Q9H8M2 1-597): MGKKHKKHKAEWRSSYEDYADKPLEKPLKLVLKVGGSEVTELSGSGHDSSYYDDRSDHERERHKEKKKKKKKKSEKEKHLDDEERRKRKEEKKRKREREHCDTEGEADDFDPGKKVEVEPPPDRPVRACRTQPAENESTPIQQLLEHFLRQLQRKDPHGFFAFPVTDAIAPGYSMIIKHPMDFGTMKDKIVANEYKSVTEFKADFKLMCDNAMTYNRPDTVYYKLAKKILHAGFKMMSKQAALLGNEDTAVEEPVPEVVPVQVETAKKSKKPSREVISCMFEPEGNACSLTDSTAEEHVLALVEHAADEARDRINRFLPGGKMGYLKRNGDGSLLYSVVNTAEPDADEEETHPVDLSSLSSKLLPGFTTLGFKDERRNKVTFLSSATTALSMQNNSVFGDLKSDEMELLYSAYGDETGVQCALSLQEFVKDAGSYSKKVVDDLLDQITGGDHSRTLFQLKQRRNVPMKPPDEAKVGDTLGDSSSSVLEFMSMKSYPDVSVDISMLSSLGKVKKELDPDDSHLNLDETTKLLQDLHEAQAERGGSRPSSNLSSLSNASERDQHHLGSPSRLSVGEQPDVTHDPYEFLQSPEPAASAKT
The experiment in a line: Degradation of BRD9 (IF), immunofluorescence in MV4-11 cells, 24 hours (Assay Protocol 2). The format is cell-based. Further details: A suspension of MV4-11 cells (ATCC CRL-9591) was prepared; host or cells: MV4-11. The settings on record: BRD9 degradation; for DC50: Assay protocol 2, read-out: DC50; for Dmax: MV4-11, Assay protocol 2, read-out: Dmax. As to the method: Assay Protocol 2—Degradation of BRD9 (IF)
A suspension of MV4-11 cells (ATCC CRL-9591) was prepared in phenol red-free assay media (IMDM Thermo Scientific 21056023+10% FBS ATCC 302025) and cells were seeded at 20,000 cells per well (45 μL) in sterile black poly-d-lysine coated 384 well plates (Greiner 781948). Compounds were prepared at 1000× final concentration in DMSO, diluted 1:100 in assay media, and 5 μL compound was added to each well of the cell plate. Cells were incubated for 24 hours at 37° C. with 5% CO2. All the following incubations for immunofluorescence staining were at room temperature. 15 μL of 16% PFA was added to each well (3.7% final concentration) and the cells were fixed for 15 min then washed twice with DPBS. Cells were permeabilised with 0.1% Triton X-100 for 10 min, Triton X-100 was removed, then blocked with 1% BSA in DPBS for 1 hour. Cells were stained with 25 μL anti-BRD9 E4Q3F antibody (CST 48306) diluted 1:25600 in 1% BSA in DPBS for 2-3 hours. Wels were washed twice with DPBS then incubated with 25 μL of 1% BSA containing a 1:1000 dilution of Anti-rabbit Alexa Fluor™ 647 secondary antibody (Thero Scientific A21244) and 1 μg/mL Hoechst nuclear counter stain (Abcam ab228551) for 1 hour. Wells were washed twice with DPBS prior to imaging on a Perkin Elmer Operetta CLS with 10× air lens. Images were processed using Harmony High-Content Imaging and Analysis Software (Perkin Elmer) and the mean contrast ratio of Alexa Fluor™ 647 in central nuclei was used to quantify BRD9 protein levels. Data was further analysed using Dotmatics software and % BRD9 remaining was calculated by normalisation to average data from high and low control wells (cells treated with DMSO or 100 nM CFT-8634 respectively).

`COc1cc(-c2cn(C)c(=O)c(C)c2C)cc(OC)c1CN1CCN(Cc2cccc3c2CCN(C(=O)/C(C#N)=C/C(C)(C)C)[C@H]3C(C)C)CC12CC2` (single isomer, unassigned) [Compound C81, (E/Z)-2-(5-((4-(2,6-dimethoxy-4-(1,4,5-trimethyl-6-oxo-1,6-dihydropyridin-3-yl)benzyl)-4,7-diazaspiro[2.5]octan-7-yl)methyl)-1-isopropyl-1,2,3,4-tetrahydroisoquinoline-2-carbonyl)-4,4-dimethylpent-2-enenitrile]: the DC50 (in general, the concentration giving 50% degradation) fell in the range of 1.25 to 10 nM and the Dmax – broadly, the greatest extent of degradation seen – was greater than 75%.
The like results for `COc1cc(-c2cn(C)c(=O)c3[nH]ncc23)cc(OC)c1CN1CCN(C(=O)/C(C#N)=C/C(C)(C)C)CC1` [Compound B215, (E/Z)-2-(4-(2,6-dimethoxy-4-(6-methyl-7-oxo-6,7-dihydro-1H-pyrazolo[3,4-c]pyridin-4-yl)benzyl)piperazine-1-carbonyl)-4,4-dimethylpent-2-enenitrile] were, in that order, 25 to 1000 nM and 40 to 70%.
With `COc1cc(-c2cn(C)c(=O)c(C)c2C)cc(OC)c1CN1CCN(Cc2cccc3c2CCN(C(=O)/C(C#N)=C/C(C)(C)C)C3C)C(=O)C1(C)C` (mixture of isomers) [Compound B112, (E/Z)-2-(5-((4-(2,6-dimethoxy-4-(1,4,5-trimethyl-6-oxo-1,6-dihydropyridin-3-yl)benzyl)-3,3-dimethyl-2-oxopiperazin-1-yl)methyl)-1-methyl-1,2,3,4-tetrahydroisoquinoline-2-carbonyl)-4,4-dimethylpent-2-enenitrile], the DC50 lay in the range of 10 to 25 nM and the Dmax was greater than 75%.
On the same counts, the results for `COc1cc(-c2cn(C)c(=O)c(C)c2C)ccc1OC1CCN(Cc2cccc3c2CCN(C(=O)/C(C#N)=C/C(C)(C)C)C3C(C)C)CC1` (mixture of isomers) [Compound C32, (E/Z)-2-(1-isopropyl-5-((4-(2-methoxy-4-(1,4,5-trimethyl-6-oxo-1,6-dihydropyridin-3-yl)phenoxy)piperidin-1-yl)methyl)-1,2,3,4-tetrahydroisoquinoline-2-carbonyl)-4,4-dimethylpent-2-enenitrile] are 25 to 1000 nM and 70 to 75%.
On the same counts, the results for `COc1cc(-c2cn(C)c(=O)c(C)c2C)cc(OC)c1CN1CCN(Cc2cccc3c2CCN(C(=O)/C(C#N)=C/c2cccc(C#N)c2)C3C)CC1` (mixture of isomers) [Compound B74, (E/Z)-3-(2-cyano-3-(5-((4-(2,6-dimethoxy-4-(1,4,5-trimethyl-6-oxo-1,6-dihydropyridin-3-yl)benzyl)piperazin-1-yl)methyl)-1-methyl-3,4-dihydroisoquinolin-2(1H)-yl)-3-oxoprop-1-en-1-yl) benzonitrile] are less than 1.25 nM and 40 to 70%.
On the same counts, the results for `COc1cc(-c2cn(C)c(=O)c(C)c2C)cc(OC)c1CN1CCN(Cc2cccc3c2CCN(C(=O)/C(C#N)=C/C(C)C)C3C(C)C)CC1` (mixture of isomers) [Compound C22, (E/Z)-2-(5-((4-(2,6-dimethoxy-4-(1,4,5-trimethyl-6-oxo-1,6-dihydropyridin-3-yl)benzyl)piperazin-1-yl)methyl)-1-isopropyl-1,2,3,4-tetrahydroisoquinoline-2-carbonyl)-4-methylpent-2-enenitrile] are 1.25 to 10 nM and greater than 75%.
As for `COc1cc(-c2cn(C)c(=O)c(C)c2C)cc(OC)c1CN1CCC(Cc2cccc3c2CCN(C(=O)/C(C#N)=C/C(C)(C)C)C3C)C(C)(C)C1` (stereo not shown) [Compound C62], the DC50 was 10 to 25 nM and the Dmax was greater than 75%.
The like results for `COc1cc(-c2cn(C)c(=O)c(C)c2C)cc(OC)c1CN1CCN(Cc2cccc3c2CCN(C(=O)/C(C#N)=C/C(C)(C)C)[C@@H]3C)[C@@H](C)C1` (single isomer, unassigned) [Compound B198] were, in that order, 1.25 to 10 nM and greater than 75%.

The record behind these values is US20260092061A1, “COMPOUNDS FOR TARGETED PROTEIN DEGRADATION” (Amphista Therapeutics Limited, priority 2022, published 2026).
